The values below come from article PMC7125978 (Bioorganic & Medicinal Chemistry, 2010).

In data set [1] the test system is Respiratory syncytial virus (HeLa). In kind it is cell-based, respiratory syncytial virus (RSV) strain Long. The following applies: relative to ribavirin (1).
In another data set the test system is uninfected cells. The following applies: for Cytotoxicity MCC: minimum cytotoxic concentration, microscopically detectable alteration of cell morphology.
The next data set relates to CEM cell extract. Kind of data set: Prodrug conversion in crude cell extracts. The class given is in vitro ADME, human. Conditions: for efficiency of conversion among the prodrugs: similar trend in HeLa and MDCK cell extracts.
The next data set has as its system Punta toro virus (Vero). Kind of data set: microbe, parasite or virus in culture. In kind it is cell-based.
The next data set concerns Vaccinia virus (HEL). In kind it is cell-based, vaccinia virus Lederle strain.
For the next data set, the system named is several viruses. The class given is cell-based.
The subject of another data set is HCV (Huh-5–2). Kind of data set: HCV subgenomic replicon luciferase assay in Huh 5-2 cells. In kind it is cell-based, hepatitis C virus (HCV).
Data set [2] deals with Influenza A/H3N2 subtype (MDCK). The class given is cell-based, influenza virus type A (H3N2).
Setting [3] is: cell extract, 37 °C, after 60 min of incubation.

The structures appear in SMILES notation.

Consider `NC(=O)c1ncn([C@@H]2O[C@H](COP(=O)(NCC(=O)OCc3ccccc3)Oc3cccc4ccccc34)[C@@H](O)[C@H]2O)n1` (stereo partly shown) [Compound 15], for which the “fold less active than ribavirin, respiratory syncytial virus” value in data set [1] is “about threefold”. Further, the “Cytotoxicity MCC” value with uninfected cells is above 100 µM. Also, the “efficiency of conversion among the prodrugs” value with CEM cell extract (CEM cell extract) is reported as “least efficiently converted”. Besides, in the data set with CEM cell extract (setting [3]), the “conversion of isomer tR 18.8 min to tR 20.2” value amounted to 10% and the “levels of isomer tR 18.5” value is listed as “virtually unaltered”. In addition, in the data set on Punta toro virus (Vero) (relative to ribavirin), the “fold superior to ribavirin, Punto Toro virus replication” value is on record as 3–5 fold. The “fold superior to ribavirin, vaccinia virus replication” value in the data set with Vaccinia virus (HEL) was 3–5 fold.

As to `NC(=O)c1ncn([C@@H]2O[C@H](CO)[C@@H](O)[C@H]2O)n1` [Ribavirin, 1-β-D-ribofuranosyl-1,2,4-triazole-3-carboxamide, reference compound], the “toxicity to uninfected cells” value in the data set with uninfected cells (at 100 μM) is “non-toxic”. In addition, the “Cytotoxicity MCC” value in the data set with uninfected cells is above 100 µM.

Take `NC(=O)c1ncn([C@@H]2O[C@H](COP(=O)(N[C@@H](Cc3ccccc3)C(=O)OCc3ccccc3)Oc3cccc4ccccc34)[C@@H](O)[C@H]2O)n1` (stereo partly drawn) [Compound 14, ribavirin-5’-[1-naphthyl(benzoxy-L-phenylalaninyl)] phosphate]: the “Cytotoxicity MCC” value in the data set on uninfected cells is above 100 µM. The “conversion of both diastereoisomers (not separable) to metabolite tR 20.2 min” value with CEM cell extract (CEM cell extract, 37 °C, within 20 min) was found to be 80%. Further, the “efficiency of conversion among the prodrugs” value in the data set on CEM cell extract (CEM cell extract) was “most efficiently converted”. The “antiviral activity, all the viruses tested” value in the data set on several viruses was “no or borderline activity”.

Turning to `C[C@H](NP(=O)(OC[C@H]1O[C@@H](n2cnc(C(N)=O)n2)[C@H](O)[C@@H]1O)Oc1cccc2ccccc12)C(=O)OCc1ccccc1` (stereo partly drawn) [Compound 13, ribavirin-5′-[1-naphthyl(benzoxy-L-alaninyl)] phosphate], the “fold less active than ribavirin, respiratory syncytial virus” value in data set [1] is recorded as “about threefold”. The “Cytotoxicity MCC” value in the data set with uninfected cells is above 100 µM. For the same compound, in the data set with CEM cell extract (cell extract, 37 °C, before second isomer (tR 19.0 min) started to be converted), the “conversion of isomer tR 19.3 min to metabolite tR 20.2 min” value is on record as at least 95%. Besides, the EC50 (usually the concentration that produces a half-maximal response) with Punta toro virus (Vero) (Punta Toro virus, Vero, read-out: Antiviral activity EC50, Punta toro virus (Vero)) was above 100 µM. Moreover, the “potency relative to ribavirin, HCV subgenomic replicon replication” value with HCV (Huh-5–2) was “equipotent to ribavirin”. Further, in data set [2], the “fold lower potency than ribavirin, influenza virus” value is listed as around 2 fold.
